One may read the Kd as a measure of binding affinity in units of concentration.

Experimental findings from ChEMBL document CHEMBL1132759, “The flavanolignan silybin and its hemisynthetic derivatives, a novel series of potential modulators of P-glycoprotein” (Bioorg Med Chem Lett, 2000) are described below.

A short description of experiment [1]: Change in Fmax was determined. The experiment is classed as functional.
Experiment [2] has as its target ATP-dependent translocase ABCB1 (Mus musculus, UniProt P21447). The experiment is described as follows: Compound was tested for the binding affinity towards recombinant NBD2 C-terminal cytosolic nucleotide-binding domain of mouse P-Glycoprotein.

Chain of ATP-dependent translocase ABCB1 (P21447 whole entry, the tested form may be a part): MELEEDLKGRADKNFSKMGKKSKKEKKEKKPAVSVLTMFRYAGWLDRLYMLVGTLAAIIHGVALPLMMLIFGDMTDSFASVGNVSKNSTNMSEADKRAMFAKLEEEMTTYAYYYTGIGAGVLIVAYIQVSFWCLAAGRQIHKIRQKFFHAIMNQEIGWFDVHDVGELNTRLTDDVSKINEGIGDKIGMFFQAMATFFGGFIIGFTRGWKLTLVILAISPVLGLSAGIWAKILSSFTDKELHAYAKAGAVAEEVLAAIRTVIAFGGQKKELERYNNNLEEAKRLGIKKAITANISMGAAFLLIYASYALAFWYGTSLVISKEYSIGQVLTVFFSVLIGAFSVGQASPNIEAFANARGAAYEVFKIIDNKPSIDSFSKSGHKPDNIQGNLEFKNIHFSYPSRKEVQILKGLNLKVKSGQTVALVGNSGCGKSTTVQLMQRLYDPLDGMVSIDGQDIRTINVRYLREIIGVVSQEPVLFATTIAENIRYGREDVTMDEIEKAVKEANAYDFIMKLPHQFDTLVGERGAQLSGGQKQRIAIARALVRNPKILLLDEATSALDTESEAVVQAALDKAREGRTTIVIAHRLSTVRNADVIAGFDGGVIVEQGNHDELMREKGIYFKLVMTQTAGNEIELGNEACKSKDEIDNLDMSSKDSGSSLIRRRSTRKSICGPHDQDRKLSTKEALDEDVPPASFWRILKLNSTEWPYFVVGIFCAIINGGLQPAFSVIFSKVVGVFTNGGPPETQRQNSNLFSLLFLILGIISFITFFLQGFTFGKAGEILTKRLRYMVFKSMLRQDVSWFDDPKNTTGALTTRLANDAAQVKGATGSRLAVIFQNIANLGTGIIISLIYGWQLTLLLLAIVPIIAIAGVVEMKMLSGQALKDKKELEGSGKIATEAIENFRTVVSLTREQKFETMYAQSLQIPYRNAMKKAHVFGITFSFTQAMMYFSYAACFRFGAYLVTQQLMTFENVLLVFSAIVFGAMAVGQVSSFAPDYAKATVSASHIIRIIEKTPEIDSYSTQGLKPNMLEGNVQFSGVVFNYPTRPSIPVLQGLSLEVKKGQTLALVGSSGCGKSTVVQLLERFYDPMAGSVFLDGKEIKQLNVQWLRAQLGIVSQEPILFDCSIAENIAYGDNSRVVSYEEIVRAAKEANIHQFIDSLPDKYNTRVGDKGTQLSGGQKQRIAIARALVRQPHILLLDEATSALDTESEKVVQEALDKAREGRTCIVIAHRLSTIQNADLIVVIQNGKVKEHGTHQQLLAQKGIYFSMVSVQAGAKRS

The molecule `COc1cc(C2Oc3cc(-c4oc5cc(O)c(CC=C(C)C)c(O)c5c(=O)c4O)ccc3OC2CO)ccc1O` (centres undefined) had a Delta Fmax in experiment [1] of 90.3%. For the same molecule, the Kd in experiment [2] is 370 nM.

`O=C1C[C@@H](c2ccc(O)cc2)Oc2cc(O)cc(O)c21` [NARINGENIN]: the Kd in experiment [2] was determined as 28500 nM.

Consider `COc1cc(C2Oc3cc(-c4oc5c(C/C=C(\C)CCC=C(C)C)c(O)cc(O)c5c(=O)c4O)ccc3OC2CO)ccc1O` (centres undefined), for which the Delta Fmax in experiment [1] amounted to 88.1%. The Kd in experiment [2] turned out to be 120 nM.

On to `O=C1c2c(O)cc(O)cc2O[C@H](c2ccc(O)c(O)c2)[C@H]1O`, for which, in experiment [1], the Delta Fmax worked out at 101%.

In turn, `COc1cc(C2Oc3cc(-c4oc5c(CC=C(C)C)c(O)cc(O)c5c(=O)c4O)ccc3OC2CO)ccc1O` (centres undefined) came in with a Delta Fmax in experiment [1] of 93.4%. The Kd in experiment [2] stood at 250 nM.

In experiment [1], `COc1cc(C2Oc3cc(-c4oc5cc(O)cc(O)c5c(=O)c4O)ccc3OC2CO)ccc1O` (centres undefined) gave a Delta Fmax of 91%.

In experiment [1], `COc1cc(C2Oc3cc(-c4oc5cc(O)c(C/C=C(\C)CCC=C(C)C)c(O)c5c(=O)c4O)ccc3OC2CO)ccc1O` (centres undefined) returned a Delta Fmax of 83.3%. Also, the Kd in experiment [2] is 180 nM.

`COc1cc(C2Oc3cc([C@H]4Oc5cc(O)cc(O)c5C(=O)[C@@H]4O)ccc3OC2CO)ccc1O` (some centres undefined) [SILIBININ] displayed a Delta Fmax in experiment [1] of 91%. Besides, the Kd in experiment [2] was 6800 nM.

For the molecule `COc1ccc(-c2oc3cc(O)cc(O)c3c(=O)c2O)cc1` [KAEMPFERIDE], in experiment [2], the Kd is 4500 nM.
